Source: patent US10752587B2, “Homobispiperidinyl derivatives as liver X receptor beta agonists, compositions and their use” (Merck Sharp & Dohme Corp., priority 2015, dated 2020)
Like-named read-outs stand apart in the source and are kept apart here.

Legend:
[1] = biological target: T1, glutathione-S-transferase (GST) tagged LXRbeta LBD (ligand binding domain) (Homo sapiens, UniProt P55055); experiment: LanthaScreen TR-FRET Liver X Receptor Coactivator Assay, co-activator recruitment to LXRbeta LBD; type: biochemical; settings: for Emax: read-out: LXR beta Activity @ max dose (%); for EC50: potency (Inflection Point, IP), co-activator recruitment to LXRbeta LBD, in relation to T0901317
T1 construct: purchased Invitrogen pv4658.pps
T1 sequence (P55055 222-460 limits assumed): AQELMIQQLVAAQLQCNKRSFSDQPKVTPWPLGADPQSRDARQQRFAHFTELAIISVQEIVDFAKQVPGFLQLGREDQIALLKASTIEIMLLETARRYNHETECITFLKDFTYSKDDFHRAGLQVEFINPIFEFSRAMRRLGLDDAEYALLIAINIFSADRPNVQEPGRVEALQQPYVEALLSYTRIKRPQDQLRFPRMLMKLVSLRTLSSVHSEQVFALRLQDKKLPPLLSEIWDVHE
Method in brief: (§1)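 TR-FRET coactivator recruitment; compound + LBD, then fluorescein-coactivator peptide/Tb-anti-GST Ab mix; RT incubation; IP and Emax vs T0901317.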

[2] = biological target: T2, glutathione-S-transferase (GST) tagged LXRalpha LBD (ligand binding domain) (Homo sapiens, UniProt Q13133); experiment: LanthaScreen TR-FRET Liver X Receptor Coactivator Assay, co-activator recruitment to LXRalpha LBD; type: biochemical; settings: for Emax: read-out: LXR alpha Activity @ max dose (%); for EC50 / LXR alpha IP (nM): potency (Inflection Point, IP), co-activator recruitment to LXRalpha LBD, in relation to T0901317; for EC50: read-out: LXR alpha IP
T2 construct: purchased Invitrogen pv4655
T2 sequence (Q13133 209-447 limits assumed): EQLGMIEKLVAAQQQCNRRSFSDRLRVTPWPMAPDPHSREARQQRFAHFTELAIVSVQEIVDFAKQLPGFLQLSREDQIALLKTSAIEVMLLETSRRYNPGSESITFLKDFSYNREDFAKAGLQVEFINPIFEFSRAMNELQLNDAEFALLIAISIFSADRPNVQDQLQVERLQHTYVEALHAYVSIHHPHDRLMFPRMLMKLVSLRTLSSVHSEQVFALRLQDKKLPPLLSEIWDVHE
Method in brief: as §1

[3] = efficacy at max dose, in relation to reference dual agonist T0901317

| SMILES | Emax [1, 3] [%] | EC50 ([1]; read-out: LXR beta IP) [nM] | Emax [2, 3] [%] | EC50 [2] [nM] | LXR alpha IP (nM) [2] | LXR beta Activity @ max dose (%) [1, 3] [%] | LXR alpha Activity @ max dose (%) [2, 3] [%] | EC50 ([1]; LXR beta IP (nM)) [nM] | Emax [1] [%] | Emax [2] [%] |
| --- | --- | --- | --- | --- | --- | --- | --- | --- | --- | --- |
| CN(C)C(=O)c1ccc(N2CCC(CC3CCN(C(=O)[C@](O)(c4ccccc4)C4CC4)CC3)CC2)cc1Cl [Example 2-105, 2-chloro-4-[4-({1-[(2R)-2-cyclopropyl-2-hydroxy-2-phenylacetyl]piperidin-4-yl}methyl)piperidin-1-yl]-N,N-dimethyl-benzamide] |  |  |  |  | NO IP |  |  | 21 | 48 | 12 |
| CC(C)c1cccc([C@@](O)(C(=O)N2CCC(C)(CC3CCN(c4ccc(C(=O)N(C)C)c(Cl)c4)CC3)CC2)C(F)(F)F)c1 [Example 2-56, 2-chloro-N,N-dimethyl-4-{4-[(4-methyl-1-{(2R)-3,3,3-trifluoro-2-hydroxy-2-[3-(1-methylethyl)phenyl]propanoyl}piperidin-4-yl)methyl]piperidin-1-yl}benzamide] | 37 | 18 | 2 |  | NO IP |  |  |  |  |  |
| CCc1cccc([C@@](O)(C(=O)N2CCC(CC3CCN(c4ccc(C(=O)N(C)C)c(C)c4)CC3)CC2)C(F)(F)F)c1 [Example 2-156, 4-[4-({1-[(2R)-2-(3-ethyl-phenyl)-3,3,3-trifluoro-2-hydroxy-propanoyl]piperidin-4-yl}methyl)piperidin-1-yl]-N,N,2-trimethyl-benzamide] | 42 | 21 | 12 |  | NO IP |  |  |  |  |  |
| CN(C)C(=O)c1ccc(N2CCC(CC3CCN(C(=O)[C@](O)(c4cc(Cl)cc(Cl)c4)C(F)(F)F)CC3)CC2)cc1 [Example 2-142, 4-[4-({1-[(2R)-2-(3,5-dichloro-phenyl)-3,3,3-trifluoro-2-hydroxy-propanoyl]piperidin-4-yl}methyl)piperidin-1-yl]-N,N-dimethyl-benzamide] |  | 60 |  |  | NO IP | 60 | 4 |  |  |  |
| O=C(c1ccc(N2CCC(CC3CCN(C(=O)[C@](O)(c4ccccc4)C(F)(F)F)CC3)CC2)cc1Cl)N1[C@H]2CC[C@@H]1CC2 [Example 4-21, (2R)-3-{4-[(1-{4-[(1s,4s)-7-aza-bicyclo[2.2.1]hept-7-ylcarbonyl]-3-chlorophenyl}piperidin-4-yl)methyl]piperidin-1-yl}-1,1,1-trifluoro-3-oxo-2-phenylpropan-2-ol] | 63 | 74 | 25 | 457 |  |  |  |  |  |  |
| CC(C)C(O)(C(=O)N1CCC(CC2CCN(c3ccc(C(=O)N(C)C)c(Cl)c3)CC2)CC1)c1ccccc1 (stereo not shown) [Example 2-109, 2-chloro-4-(4-{[1-(2-hydroxy-3-methyl-2-phenylbutanoyl)piperidin-4-yl]methyl}piperidin-1-yl)-N,N-dimethyl-benzamide] | 75 | 72 | 26 | 982 |  |  |  |  |  |  |
| COc1cc(Cl)cc([C@@](O)(C(=O)N2CCC(CC3CCN(c4ccc(C(=O)N(C)C)cc4)CC3)CC2)C(F)(F)F)c1 [Example 2-138, 4-[4-({1-[(2R)-2-(3-chloro-5-methoxyphenyl)-3,3,3-trifluoro-2-hydroxy-propanoyl]piperidin-4-yl}methyl)piperidin-1-yl]-N,N-dimethyl-benzamide] | 35 | 74 | 0 |  | NO IP |  |  |  |  |  |
| CN(C)C(=O)c1ccc(N2CCC(CC3(C)CCN(C(=O)[C@](O)(c4ccccc4)C(F)(F)F)CC3)CC2)cc1Cl [Example 2-44, 2-chloro-N,N-dimethyl-4-[4-({4-methyl-1-[(2R)-3,3,3-trifluoro-2-hydroxy-2-phenyl-propanoyl]piperidin-4-yl}methyl)piperidin-1-yl]benzamide] | 37 | 1 | 20 | 32 |  |  |  |  |  |  |
| CN(C)C(=O)c1ccc(N2CCC(CC3CCN(C(=O)[C@](O)(c4cccc(C(F)(F)F)c4)C(F)(F)F)CC3)CC2)cc1 [Example 2-136, N,N-dimethyl-4-{4-[(1-{(2R)-3,3,3-trifluoro-2-hydroxy-2-[3-(trifluoromethyl)phenyl]propanoyl}piperidin-4-yl)methyl]piperidin-1-yl}benzamide] | 64 | 69 | 20 | 714 |  |  |  |  |  |  |

More lines, main results first:

| Emax [1, 3] [%] | EC50 ([1]; read-out: LXR beta IP) [nM] | Emax [2, 3] [%] | EC50 [2] [nM] | LXR alpha IP (nM) [2] | LXR beta Activity @ max dose (%) [1, 3] [%] | LXR alpha Activity @ max dose (%) [2, 3] [%] | SMILES | EC50 ([1]; LXR beta IP (nM)) [nM] | Emax [1] [%] | Emax [2] [%] |
| --- | --- | --- | --- | --- | --- | --- | --- | --- | --- | --- |
| 72 | 53 | 31 | 555 |  |  |  | O=C(c1ccc(N2CCC(CC3CCN(C(=O)[C@](O)(c4ccccc4)C(F)(F)F)CC3)CC2)cc1Cl)N1CCC1 [Example 4-1, (R)-1-(4-((1-(4-(azetidine-1-carbonyl)-3-chlorophenyl)piperidin-4-yl)methyl)piperidin-1-yl)-3,3,3-trifluoro-2-hydroxy-2-phenylpropan-1-one] |  |  |  |
| 95 | 6 | 31 | 298 |  |  |  | CN(C)C(=O)c1ccc(N2CCC(CC3CCN(C(=O)C(O)(c4cccc(C#N)c4)C(F)(F)F)CC3)CC2)nc1Cl (stereo not shown) [Example 7-78, 2-chloro-6-[4-({1-[2-(3-cyanophenyl)-3,3,3-trifluoro-2-hydroxypropanoyl]piperidin-4-yl}methyl)piperidin-1-yl]-N,N-dimethylpyridine-3-carboxamide] |  |  |  |
| 119 | 82 | 31 | 1350 |  |  |  | CN(C)C(=O)c1ccc(N2CCC(CC3CCN(C(=O)[C@@](O)(c4ccccc4)C(F)(F)F)CC3)CC2)nc1Cl [Example 7-62, 2-chloro-N,N-dimethyl-6-[4-({1-[(2S)-3,3,3-trifluoro-2-hydroxy-2-phenylpropanoyl]piperidin-4-yl}methyl)piperidin-1-yl]pyridine-3-carboxamide] |  |  |  |
| 86 | 14 | 6 |  | NO IP |  |  | CNC(=O)c1ccc(N2CCC(CC3CCN(C(=O)[C@](O)(c4cccc(OC(C)C)c4)C(F)(F)F)CC3)CC2)nc1Cl [Example 7-136, 2-chloro-N-methyl-6-{4-[(1-{(2R)-3,3,3-trifluoro-2-hydroxy-2-[3-(1-methylethoxy)phenyl]propanoyl}piperidin-4-yl)methyl]piperidin-1-yl}pyridine-3-carboxamide] |  |  |  |
| 111 | 7 | 53 | 106 |  |  |  | CN(C)C(=O)c1ccc(N2CCC(CC3CCN(C(=O)C(O)(c4cc(F)cc(F)c4)C(F)(F)F)CC3)CC2)nc1Cl (stereo not shown) [Example 7-82, 2-chloro-6-[4-({1-[2-(3,5-difluorophenyl)-3,3,3-trifluoro-2-hydroxypropanoyl]piperidin-4-yl}methyl)piperidin-1-yl]-N,N-dimethylpyridine-3-carboxamide] |  |  |  |
| 82 | 12 | 32 | 182 |  |  |  | CNC(=O)c1ccc(N2CCC(CC3CCN(C(=O)[C@](O)(c4cccc(Br)c4)C(F)(F)F)CC3)CC2)cc1Cl [Example 7-119, 4-[4-({1-[(2R)-2-(3-bromophenyl)-3,3,3-trifluoro-2-hydroxypropanoyl]piperidin-4-yl}methyl)piperidin-1-yl]-2-chloro-N-methyl-benzamide] |  |  |  |
| 55 | 5 | 13 |  | NO IP |  |  | COc1cccc([C@@](O)(C(=O)N2CCC(CC3CCN(c4ccc(C(N)=O)c(Cl)c4)CC3)CC2)C(F)(F)F)c1 [Example 12-4, 2-chloro-4-[4-({1-[(2R)-3,3,3-trifluoro-2-hydroxy-2-(3-methoxyphenyl)-propanoyl]piperidin-4-yl}methyl)piperidin-1-yl]benzamide] |  |  |  |
